According to the supplement of paper PMC10307832:

Columns and labels:
Assay in all cases: relative viability (nuclei count vs DMSO), 5 days (fraction); higher = more cells survive
KIN001-266 + Alpelisib = compound: CCN1CCC(CC1)N2C=C(N=N2)CNC3=CC4=C(C(=CN=C4C(=C3)Cl)C#N)NC5=CC(=C(C=C5)F)Cl [KIN001-266] + Cc1nc(NC(=O)N2CCC[C@H]2C(N)=O)sc1-c1ccnc(C(C)(C)C(F)(F)F)c1 [Alpelisib] (partner 2 µM)
Summary of the method: (§1)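 Lung cancer cell lines in 1536-well plates got either a single drug or a fixed anchor-drug dose together with five library-drug doses (not always all listed) in √10 steps, by pin tool, on the day after seeding. Nuclei were counted after 5 days, and relative viability is the treated-to-vehicle ratio of nuclei counts. Values are medians of duplicate plates.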

KIN001-266 + Pictilisib = compound: CCN1CCC(CC1)N2C=C(N=N2)CNC3=CC4=C(C(=CN=C4C(=C3)Cl)C#N)NC5=CC(=C(C=C5)F)Cl [KIN001-266] + CS(=O)(=O)N1CCN(Cc2cc3nc(-c4cccc5[nH]ncc45)nc(N4CCOCC4)c3s2)CC1 [Pictilisib] (partner 1 µM)
Summary of the method: as §1

KIN001-266 + Decitabine = compound: CCN1CCC(CC1)N2C=C(N=N2)CNC3=CC4=C(C(=CN=C4C(=C3)Cl)C#N)NC5=CC(=C(C=C5)F)Cl [KIN001-266] + Nc1ncn([C@H]2C[C@H](O)[C@@H](CO)O2)c(=O)n1 [Decitabine] (partner 2 µM)
Summary of the method: as §1

KIN001-266 + Linsitinib = compound: CCN1CCC(CC1)N2C=C(N=N2)CNC3=CC4=C(C(=CN=C4C(=C3)Cl)C#N)NC5=CC(=C(C=C5)F)Cl [KIN001-266] + C[C@]1(O)C[C@@H](c2nc(-c3ccc4ccc(-c5ccccc5)nc4c3)c3c(N)nccn32)C1 [Linsitinib] (partner 1 µM)
Summary of the method: as §1

Cell Line	relative viability (KIN001-266 + Alpelisib; first compound 0.08 µM)	relative viability (KIN001-266 + Alpelisib; first compound 0.253 µM)	relative viability (KIN001-266 + Alpelisib; first compound 0.8 µM)	relative viability (KIN001-266 + Alpelisib; first compound 2.53 µM)	relative viability (KIN001-266 + Alpelisib; first compound 8 µM)	relative viability (KIN001-266 + Pictilisib; first compound 0.08 µM)	relative viability (KIN001-266 + Pictilisib; first compound 0.253 µM)	relative viability (KIN001-266 + Pictilisib; first compound 0.8 µM)	relative viability (KIN001-266 + Pictilisib; first compound 2.53 µM)	relative viability (KIN001-266 + Pictilisib; first compound 8 µM)	relative viability (KIN001-266 + Decitabine; first compound 0.08 µM)	relative viability (KIN001-266 + Decitabine; first compound 0.253 µM)	relative viability (KIN001-266 + Decitabine; first compound 0.8 µM)	relative viability (KIN001-266 + Decitabine; first compound 2.53 µM)	relative viability (KIN001-266 + Decitabine; first compound 8 µM)	relative viability (KIN001-266 + Linsitinib; first compound 0.08 µM)	relative viability (KIN001-266 + Linsitinib; first compound 0.253 µM)	relative viability (KIN001-266 + Linsitinib; first compound 0.8 µM)	relative viability (KIN001-266 + Linsitinib; first compound 2.53 µM)	relative viability (KIN001-266 + Linsitinib; first compound 8 µM)
NCI-H650	1.12	1.08	1.33	1.09	1.14	0.924	0.899	0.917	0.921	0.908	0.346	0.337	0.309	0.319	0.306	0.914	1.05	0.976	0.979	1.03
SK-MES-1	0.943	0.813	0.845	0.872	0.76	0.304	0.351	0.37	0.408	0.316	0.383	0.37	0.386	0.391	0.433	1.17	1.08	1.01	1	0.902
NCI-H1792	0.715	0.752	0.695	0.8	0.669	0.312	0.282	0.325	0.305	0.265	0.543	0.562	0.508	0.522	0.463	0.544	0.471	0.515	0.603	0.533
NCI-H1355	0.854	0.783	0.912	0.737	0.764	0.481	0.408	0.399	0.303	0.378	0.365	0.352	0.357	0.374	0.346	0.814	0.803	0.905	0.779	0.742
SW 1573	0.789	0.775	0.709	0.764	0.693	0.523	0.448	0.502	0.474	0.39	0.504	0.447	0.699	0.427	0.429	0.844	0.8	0.72	0.732	0.619
A549	1.01	0.782	0.898	0.758	0.701	0.584	0.527	0.519	0.584	0.393	0.401	0.207	0.24	0.35	0.223	0.604	0.55	0.562	0.668	0.592
NCI-H2347	1.03	1.01	1.03	0.996	0.578	0.663	0.698	0.476	0.422	0.485	0.64	0.643	0.56	0.622	0.458	0.998	0.936	0.937	0.762	0.573
LCLC-97TM1	0.268	0.217	0.236	0.222	0.236	0.198	0.264	0.192	0.16	0.215	0.22	0.226	0.226	–	0.168	0.226	0.197	0.18	0.176	0.192
EMC-BAC-2	0.718	0.751	0.749	0.743	0.733	0.551	0.55	0.505	0.523	0.513	1.04	1.04	0.965	0.984	0.988	0.781	0.792	0.877	0.86	0.862
NCI-H1975	0.696	0.75	0.667	0.665	0.597	0.316	0.308	0.304	0.294	0.326	0.391	0.373	0.377	0.404	0.39	0.981	1.04	1.08	1.02	0.958
BEN	0.841	1.08	1.03	0.997	0.916	0.632	0.615	0.589	0.54	0.632	0.975	0.696	0.754	0.623	0.752	0.892	0.919	0.914	1.04	0.978
NCI-H23	0.768	0.646	0.733	0.663	0.695	0.494	0.557	0.458	0.351	0.469	0.332	0.297	0.311	0.311	0.256	0.626	0.604	0.591	0.691	0.55
NCI-H520	0.817	0.929	1.08	0.646	0.801	0.311	0.242	0.289	0.237	0.286	0.538	0.548	0.576	0.474	0.459	1.01	0.969	1.06	0.769	0.894
EPLC-272H	1.05	0.874	0.938	0.842	0.74	0.349	0.336	0.305	0.265	0.289	0.382	0.404	0.338	0.344	0.319	1.26	1.34	0.842	1.15	1.16
LCLC-103H	0.906	0.975	0.951	0.972	0.808	0.618	0.693	0.71	0.676	0.605	0.702	0.742	0.636	0.689	0.706	1.02	1.04	1.16	1.09	0.96
NCI-H2405	0.807	0.719	0.759	0.74	0.38	0.384	0.412	0.449	0.288	0.347	0.772	0.78	0.783	0.694	0.627	0.888	0.887	0.942	0.928	0.584
